This passage reports IC50 results from US11866430B2, “Naphthyridinone compounds useful as T cell activators” (priority 2018, dated 2024).

One assay addresses human DGKα (Homo sapiens (Human), UniProt P23743). In words: biochemical. The following applies: detergent/lipid micelle substrate; read-out: DGKα IC50. In a few lines: (§1)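 Enzymes were baculovirus/Sf9 full-length human DGKα or DGKζ with His tag. The substrate was PS/DAG in octyl glucoside micelles, in MOPS pH 7.5 buffer with NaCl, MgCl2, CaCl2 and DTT.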
Assay [1] has as its system pre-activated CD4 T cells and Raji cells. The assay can be described thus: Raji CD4 T Cell IL2 Assay. The following applies: Homo sapiens, Raji. The assay is classed as cell-based.
A further assay deals with human DGKζ (Homo sapiens (Human), UniProt Q13574). In words: DGKζ assay (detergent/lipid micelle substrate). Type of assay: biochemical. The following applies: detergent/lipid micelle substrate; read-out: DGKζ IC50. In outline:
as §1

Molecules are shown by their SMILES. Bounds are passed on as bounds.

Sequence of human DGKα (P23743 other isoform, or with tags, fused parts or gaps): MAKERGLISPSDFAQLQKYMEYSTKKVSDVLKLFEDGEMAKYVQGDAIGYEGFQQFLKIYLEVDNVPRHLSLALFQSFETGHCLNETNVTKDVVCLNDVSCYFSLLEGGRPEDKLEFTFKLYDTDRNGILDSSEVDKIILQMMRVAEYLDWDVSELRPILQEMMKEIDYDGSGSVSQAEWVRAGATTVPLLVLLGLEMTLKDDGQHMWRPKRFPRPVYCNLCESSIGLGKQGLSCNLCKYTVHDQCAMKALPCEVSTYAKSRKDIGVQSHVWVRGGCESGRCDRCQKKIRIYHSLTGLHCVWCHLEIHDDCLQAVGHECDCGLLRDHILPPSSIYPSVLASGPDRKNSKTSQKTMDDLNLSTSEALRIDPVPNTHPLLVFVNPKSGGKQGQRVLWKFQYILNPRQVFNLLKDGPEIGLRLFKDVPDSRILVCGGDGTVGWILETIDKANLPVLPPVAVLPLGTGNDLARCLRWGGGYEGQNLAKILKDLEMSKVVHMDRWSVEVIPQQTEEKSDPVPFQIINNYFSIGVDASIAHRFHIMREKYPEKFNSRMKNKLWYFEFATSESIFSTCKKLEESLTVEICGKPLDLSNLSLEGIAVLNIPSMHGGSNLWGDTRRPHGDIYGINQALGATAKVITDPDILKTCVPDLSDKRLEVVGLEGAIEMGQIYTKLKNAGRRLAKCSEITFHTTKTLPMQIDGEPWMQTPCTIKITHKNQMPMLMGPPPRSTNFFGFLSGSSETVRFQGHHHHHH
Sequence of human DGKζ (Q13574 other isoform, or with tags, fused parts or gaps): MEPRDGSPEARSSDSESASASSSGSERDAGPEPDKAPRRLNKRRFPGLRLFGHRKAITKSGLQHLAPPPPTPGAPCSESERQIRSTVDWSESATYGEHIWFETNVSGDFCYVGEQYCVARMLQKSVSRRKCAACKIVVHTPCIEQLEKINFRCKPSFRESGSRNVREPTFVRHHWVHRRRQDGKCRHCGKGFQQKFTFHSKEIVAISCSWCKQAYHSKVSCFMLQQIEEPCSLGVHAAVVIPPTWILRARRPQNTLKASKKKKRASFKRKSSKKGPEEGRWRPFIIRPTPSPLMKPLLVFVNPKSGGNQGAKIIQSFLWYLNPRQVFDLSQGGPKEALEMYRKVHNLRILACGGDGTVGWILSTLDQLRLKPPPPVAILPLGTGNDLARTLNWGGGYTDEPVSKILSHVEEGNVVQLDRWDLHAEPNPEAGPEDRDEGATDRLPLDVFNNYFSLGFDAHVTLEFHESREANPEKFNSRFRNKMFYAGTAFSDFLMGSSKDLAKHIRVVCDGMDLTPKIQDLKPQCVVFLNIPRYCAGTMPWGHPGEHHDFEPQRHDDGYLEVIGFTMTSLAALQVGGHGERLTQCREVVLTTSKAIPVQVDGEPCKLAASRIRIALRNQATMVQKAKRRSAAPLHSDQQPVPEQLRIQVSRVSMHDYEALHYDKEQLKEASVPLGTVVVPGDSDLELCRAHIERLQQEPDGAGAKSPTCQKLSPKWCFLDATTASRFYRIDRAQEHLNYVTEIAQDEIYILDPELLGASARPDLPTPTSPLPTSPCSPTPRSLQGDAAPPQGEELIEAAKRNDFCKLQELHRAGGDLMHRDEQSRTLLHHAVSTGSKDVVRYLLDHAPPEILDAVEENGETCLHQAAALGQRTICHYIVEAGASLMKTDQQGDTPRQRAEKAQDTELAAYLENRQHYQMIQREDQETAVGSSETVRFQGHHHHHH

Usually IC50 stands for the concentration that inhibits the measured activity by half. `Cn1c(=O)c([N+](=O)[O-])c(N2CCN(C(c3ccc(F)cc3)c3ccccc3O)CC2)c2nc(Br)ccc21` (stereo not drawn) [Example 70, 6-bromo-4-(4-((4-fluorophenyl)(2-hydroxyphenyl)methyl)piperazin-1-yl)-1-methyl-3-nitro-1,5-naphthyridin-2(1H)-one]: the values for the IC50 (on human DGKα; in assay [1]; at human DGKζ) were 0.13 µM, 0.0089 µM and 3.3 µM, respectively.

Consider `Cc1ccccc1C(c1ccccc1O)N1CCN(c2c([N+](=O)[O-])c(=O)n(C)c3ccc(Br)nc23)CC1` (stereo not drawn) [Example 73, 6-bromo-4-(4-((2-hydroxyphenyl)(o-tolyl)methyl)piperazin-1-yl)-1-methyl-3-nitro-1,5-naphthyridin-2(1H)-one], for which the IC50 turned out to be 0.9 µM at human DGKα, 0.026 µM in assay [1] and 2.1 µM at human DGKζ.

In the case of `COCCn1c(=O)c(C#N)c(N2CCN(C(c3ccc(F)cc3)c3ccccc3O)CC2)c2nc(Br)ccc21` (stereo not drawn) [Example 117, 6-bromo-4-(4-((4-fluorophenyl)(2-hydroxyphenyl)methyl)piperazin-1-yl)-1-(2-methoxyethyl)-2-oxo-1,2-dihydro-1,5-naphthyridine-3-carbonitrile], the IC50 at human DGKα amounted to 46 µM; in assay [1], 0.77 µM; at human DGKζ it was 21 µM.

In the case of `Cn1c(=O)c([N+](=O)[O-])c(N2CCN(C(c3ccc(F)cc3)c3ccc(F)cc3O)CC2)c2nc(C#N)ccc21` (stereo not drawn) [Example 122, 8-(4-((4-fluoro-2-hydroxyphenyl)(4-fluorophenyl)methyl)piperazin-1-yl)-5-methyl-7-nitro-6-oxo-5,6-dihydro-1,5-naphthyridine-2-carbonitrile], the values for the IC50 (at human DGKα; in assay [1]; on human DGKζ) were 1 µM, 0.011 µM and 0.72 µM, respectively.

`COCCn1c(=O)c([N+](=O)[O-])c(N2CCN(C(c3ccc(F)cc3)c3ccc(F)cc3)CC2)c2nc(C#N)ccc21` [Example 147, 8-(4-(bis(4-fluorophenyl)methyl)piperazin-yl)-5-(2-methoxyethyl)-7-nitro-6-oxo-5,6-dihydro-1,5-naphthyridine-2-carbonitrile]: the values for the half-maximal inhibitory concentration (IC50) (on human DGKα; in assay [1]; on human DGKζ) were 76 µM, 0.3 µM and 3.6 µM, respectively.

Regarding `N#CCn1c(=O)c([N+](=O)[O-])c(N2CCN(C(c3ccc(F)cc3)c3ccc(F)cc3)CC2)c2nc(C#N)ccc21` [Example 152, 8-(4-(bis(4-fluorophenyl)methyl)piperazin-1-yl)-5-(cyanomethyl)-7-nitro-6-oxo-5,6-dihydro-1,5-naphthyridine-2-carbonitrile], the IC50 on human DGKα was found to be 150 µM; in assay [1] it was 0.15 µM; at human DGKζ, 3.9 µM.

`N#CCn1c(=O)c(C#N)c(N2CCN(C(c3ccc(F)cc3)c3ccc(F)cc3)CC2)c2nc(Br)ccc21` [Example 153, 4-(4-(bis(4-fluorophenyl)methyl)piperazin-1-yl)-6-bromo-1-(cyanomethyl)-2-oxo-1,2-dihydro-1,5-naphthyridine-3-carbonitrile]: the values for the IC50 (at human DGKα; in assay [1]; at human DGKζ) were 180 µM, 0.71 µM and 76 µM, respectively.

As to `N#CCn1c(=O)c(C#N)c(N2CCN(C(c3ccc(F)cc3)c3ccccc3O)CC2)c2nc(Br)ccc21` (stereo not drawn) [Example 157, 6-bromo-1-(cyanomethyl)-4-(4-((4-fluorophenyl)(2-hydroxyphenyl)methyl)piperazin-1-yl)-2-oxo-1,2-dihydro-1,5-naphthyridine-3-carbonitrile], the figures for the IC50 (on human DGKα; in assay [1]; at human DGKζ) were 53 µM, 0.22 µM and 26 µM, respectively.

As to `N#Cc1c(N2CCN(C(c3ccc(F)cc3)c3ccc(F)cc3)CC2)c2nc(Br)ccc2n(CC2CC2)c1=O` [Example 161, 4-(4-(bis(4-fluorophenyl)methyl)piperazin-1-yl)-6-bromo-1-(cyclopropylmethyl)-2-oxo-1,2-dihydro-1,5-naphthyridine-3-carbonitrile], the IC50 is greater than 240 µM at human DGKα, 5.7 µM in assay [1] and greater than 81 µM on human DGKζ.

Turning to `O=c1c([N+](=O)[O-])c(N2CCN(C(c3ccccc3)c3ccccc3)CC2)c2ncccc2n1CCC=C(F)F` [Example 186, 4-(4-benzhydrylpiperazin-1-yl)-1-(4,4-difluorobut-3-en-1-yl)-3-nitro-1,5-naphthyridin-2(1H)-one], the IC50 at human DGKα was greater than 240 µM; in assay [1] it was 3 µM; on human DGKζ it was greater than 240 µM.

Consider `COCCOCCCn1c(=O)c([N+](=O)[O-])c(N2CCN(C(c3ccccc3)c3ccccc3)CC2)c2ncccc21` [Example 189, 4-(4-benzhydrylpiperazin-1-yl)-1-(3-(2-methoxyethoxy)propyl)-3-nitro-1,5-naphthyridin-2(1H)-one], for which the values for the IC50 (on human DGKα; in assay [1]; on human DGKζ) were 130 µM, 7.3 µM and greater than 240 µM, respectively.

As to `COCCCn1c(=O)c([N+](=O)[O-])c(N2CCN(C(c3ccccc3)c3ccccc3)CC2)c2ncccc21` [Example 190, 4-(4-benzhydrylpiperazin-1-yl)-1-(3-methoxypropyl)-3-nitro-1,5-naphthyridin-2(1H)-one], the IC50 at human DGKα is 58 µM; in assay [1], 4.2 µM; at human DGKζ it was greater than 240 µM.

Take `Cn1c(=O)c(C#N)c(N2CCN(Cc3ccccc3O)CC2)c2nc(Cl)ccc21` [Example 198, 6-chloro-4-(4-(2-hydroxybenzyl)piperazin-1-yl)-1-methyl-2-oxo-1,2-dihydro-1,5-naphthyridine-3-carbonitrile]: the IC50 came out at 0.074 µM on human DGKα, 0.5 µM in assay [1] and 150 µM at human DGKζ.

As for `CCN(C)c1cccc(CN2CCN(c3c(C#N)c(=O)n(C)c4ccc(Cl)nc34)CC2)c1` [Example 199, 6-chloro-4-(4-(3-(ethyl(methyl)amino)benzyl)piperazin-1-yl)-1-methyl-2-oxo-1,2-dihydro-1,5-naphthyridine-3-carbonitrile], the values for the IC50 (on human DGKα; in assay [1]; on human DGKζ) were 0.48 µM, 0.38 µM and greater than 240 µM, respectively.

As to `C=CCOc1cc(F)cc2c1C(N1CCN(c3c(C#N)c(=O)n(C)c4ccc(Cl)nc34)CC1)CC2` (stereo not drawn) [Example 200, 4-(4-(7-(allyloxy)-5-fluoro-2,3-dihydro-1H-inden-1-yl)piperazin-1-yl)-6-chloro-1-methyl-2-oxo-1,2-dihydro-1,5-naphthyridine-3-carbonitrile], the results for the IC50 (at human DGKα; in assay [1]; at human DGKζ) were 24 µM, 1.6 µM and greater than 240 µM, respectively.

`CCc1ccc2c(n1)c(N1CCN(C(c3ccccc3)c3ccccc3)CC1)c(C#N)c(=O)n2C` [Example 202, 4-(4-benzhydrylpiperazin-1-yl)-6-ethyl-1-methy-2-oxo-1,2-dihydro-1,5-naphthyridine-3-carbonitrile]: the 50% inhibitory concentration (IC50) on human DGKα came out at 31 µM; in assay [1] it was 0.4 µM; on human DGKζ, 12 µM.

Take `Cn1c(=O)c(C#N)c(N2CCN(Cc3ccccc3NC(=O)c3ccccc3)CC2)c2nc(Br)ccc21` [Example 213, N-(2-((4-(6-bromo-3-cyano-1-methyl-2-oxo-1,2-dihydro-1,5-naphthyridin-4-yl)piperazin-1-yl)methyl)phenyl)benzamide]: the figures for the IC50 (at human DGKα; in assay [1]; on human DGKζ) were 3.1 µM, 0.71 µM and greater than 240 µM, respectively.
